Data: patent publication US20090292124A1, “Therapeutic Agent for Nausea and/or Vomiting” (TORAY INDUSTRIES, INC. a corporation of Japan, priority 2005, published 2009)
Marks after values point to notes of the source that are not given here.

Columns and labels:
Format in all cases: in vivo
ferrets = assay: Influence on nausea and vomiting induced by morphine; conditions: test substance 5 mg/kg 30 min before morphine 0.6 mg/kg s.c.; for Appearance Frequency / Duration / Latent Time: mean ± standard error; for Latent Time: no symptom counted as 30 min; for Number of Individuals Presenting Symptoms (Number of Individuals Presenting Symptoms/Number of Cases): observed 30 min
Procedure: About 30 minutes after feeding, ferrets were transferred to observation cages, and the test substances were administered, respectively. Each test substance was dissolved in 5% xylitol, and administered at a dose of 5 mg/kg. Thirty minutes after administration of the test solution, 0.6 mg/kg of morphine was subcutaneously administered at a volume of 1 mL/kg, and the symptoms of vomiting were visually observed until 30 minutes after the administration of morphine.
The appearance frequency, latent time (the time from the administration of morphine to the first appearance of the symptom) and duration (the time from the first vomiting to the final vomiting) of nausea (rhythmical contractile motion of abdomen), of vomiting (vomiting behavior excreting vomit or analogous behavior thereof) and of the total of nausea and vomiting were counted, respectively.

[1] = Test of brain penetration (Test Example 2, oral); conditions: rat, Crj:CD(SD)IGS male rats, non-fasting, 30 mg/kg orally, brain and plasma 2 hours after administration, n=3
Procedure: Crj:CD(SD)IGS male rats of 7-8 weeks of age
Each of the test compounds in an amount of 90 mg was suspended in 0.5% methylcellulose 1500 cp to a total volume of 6 mL.
Each test compound was orally administered to non-fasting rats (30 mg/2 mL/kg, n=3), and total blood was collected from the lower aorta 2 hours after the administration. An aliquot of the blood was centrifuged (3000 rpm, 10 minutes, 4° C.), and the concentration of unchanged compound in the obtained blood plasma was measured by LC/MS/MS method.
(§1) After the above-described collection of the total blood, the brain was enucleated from each rat, and homogenized to prepare a 25% homogenate, followed by measurement of the concentration of unchanged compound by LC/MS/MS method.
From the obtained concentrations, Kp values were determined.

[2] = Test of brain penetration (Reference Example 1, intravenous); conditions: rat, Jcl-SD male rats, non-fasting, 0.5 mg/kg intravenously, brain and plasma 15 minutes after administration, n=2
Procedure: Jcl-SD male rats of 7 weeks of age
The test compound in an amount of 1.0 mg was dissolved in 0.8 mL of N,N-dimethylacetamide, and 0.8 mL of propylene glycol was added thereto.
The test compound was intravenously administered to non-fasting rats (0.5 mg/0.8 mL/kg, n=2) through the tail vein, and total blood was collected from the lower aorta 15 minutes after the administration. An aliquot of the blood was centrifuged (3000 rpm, 10 minutes, 4° C.), and the concentration of unchanged compound in the obtained blood plasma was measured by LC/MS/MS method.
as §1
From the obtained concentrations, Kp values were determined. As a result, the Kp value of NIT was 1.30.

SMILES | Appearance Frequency (ferrets; Nausea + Vomiting) | Duration (ferrets; Nausea + Vomiting) [min] | Latent Time (ferrets; Nausea + Vomiting) [min] | Number of Individuals Presenting Symptoms (Number of Individuals Presenting Symptoms/Number of Cases) (ferrets; Nausea + Vomiting) | Appearance Frequency (ferrets; Nausea) | Duration (ferrets; Nausea) [min] | Latent Time (ferrets; Nausea) [min] | Number of Individuals Presenting Symptoms (Number of Individuals Presenting Symptoms/Number of Cases) (ferrets; Nausea) | Appearance Frequency (ferrets; Vomiting) | Duration (ferrets; Vomiting) [min] | Latent Time (ferrets; Vomiting) [min] | Number of Individuals Presenting Symptoms (Number of Individuals Presenting Symptoms/Number of Cases) (ferrets; Vomiting) | Kp at 2 h [1] | Kp at 0.25 h [2]
Cn1c2c(c3ccccc31)C[C@@]1(O)[C@H]3Cc4ccc(O)c5c4[C@@]1(CCN3CC1CC1)[C@H]2O5 [Compound 1] | 0 ± 0 | 0 ± 0 | 30 ± 0 | 0/6## | 0 ± 0 | 0 ± 0 | 30 ± 0 | 0/6## | 0 ± 0 | 0 ± 0 | 30 ± 0 | 0/6 |  | 
CCOC(=O)c1ccc2c3c([nH]c2c1)[C@@H]1Oc2c(O)ccc4c2[C@@]12CCN(CC1CC1)[C@H](C4)[C@]2(O)C3 [Compound 2] | 0 ± 0 | 0 ± 0 | 30 ± 0 | 0/6## | 0 ± 0 | 0 ± 0 | 30 ± 0 | 0/6## | 0 ± 0 | 0 ± 0 | 30 ± 0 | 0/6 | 0.18 | 
Cc1ccc(/C=C2\C[C@@]3(O)[C@H]4Cc5ccc(O)c6c5[C@@]3(CCN4CC3CC3)[C@@H](O6)C2=O)cc1 [Compound 3] | 0 ± 0 | 0 ± 0 | 30 ± 0 | 0/6## | 0 ± 0 | 0 ± 0 | 30 ± 0 | 0/6## | 0 ± 0 | 0 ± 0 | 30 ± 0 | 0/6 | 0.46 | 
Oc1ccc2c3c1O[C@H]1c4[nH]c5ccccc5c4C[C@@]4(O)[C@@H](C2)N(CC2CC2)CC[C@]314 [NIT, naltrindole] |  |  |  |  |  |  |  |  |  |  |  |  |  | 1.3
